Measured values reported in patent US20240116985A1, “STAPLED PEPTIDES AND METHODS THEREOF” (priority 2020, published 2024).
Values after ≈ are worked out from the molar mass of the structure shown. Values joined by “and” are separate entries in the source; they are usually repeats but may differ in a detail not shown here. Equal entries are not always repeated. Where two headings read alike, the source gives them in different places. Blank lines part the entries; values can stand above or below the compound they belong to.

Legend:
[1] = CHI Log D procedure; format: physicochemical; details: pH 7.4, CHI Log D
[2] = biological target: T1, beta-catenin/TCF4 engagement (Homo sapiens, UniProt P35222); assay: Nano-BRET target engagement assay (B-cat-Halo & TCF4-Luc in HEK293 cells); format: cell-based; details: for BRET % Inhibition: replicates
T1 construct: expressed in transfected cells; host or cells: HEK293
T1 sequence (P35222 1-781): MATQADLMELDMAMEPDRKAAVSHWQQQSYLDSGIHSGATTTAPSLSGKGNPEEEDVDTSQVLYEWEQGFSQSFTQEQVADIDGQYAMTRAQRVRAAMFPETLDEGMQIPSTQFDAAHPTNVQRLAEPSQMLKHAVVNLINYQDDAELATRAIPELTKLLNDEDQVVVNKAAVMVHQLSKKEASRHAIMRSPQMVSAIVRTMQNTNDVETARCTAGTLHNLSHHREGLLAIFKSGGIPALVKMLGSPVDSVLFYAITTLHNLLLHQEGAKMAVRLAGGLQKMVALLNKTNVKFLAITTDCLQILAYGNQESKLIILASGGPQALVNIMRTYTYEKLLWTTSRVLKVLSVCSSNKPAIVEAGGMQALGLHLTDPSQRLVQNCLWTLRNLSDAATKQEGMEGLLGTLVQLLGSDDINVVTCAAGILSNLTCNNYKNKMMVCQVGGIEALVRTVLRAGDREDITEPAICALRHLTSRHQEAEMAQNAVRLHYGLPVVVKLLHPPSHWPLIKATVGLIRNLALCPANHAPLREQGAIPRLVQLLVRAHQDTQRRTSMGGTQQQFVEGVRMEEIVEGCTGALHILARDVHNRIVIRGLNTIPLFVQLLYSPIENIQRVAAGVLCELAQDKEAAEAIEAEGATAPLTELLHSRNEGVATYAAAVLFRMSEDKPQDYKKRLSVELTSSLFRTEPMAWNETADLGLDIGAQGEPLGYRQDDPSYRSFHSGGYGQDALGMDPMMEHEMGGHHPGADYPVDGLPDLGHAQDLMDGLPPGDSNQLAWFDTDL

[3] = Solubility in PBS; format: physicochemical
Outline: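 Solubility is derived from HPLC peak areas: the ratio of the PBS supernatant peak to a 50 μM DMSO peptide peak, times 50 uM.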

[4] = system: HEK293 cells; assay: in vitro; format: cell-based; details: human, 1.25 µM
Experimental: (§1) On Day 3, fluorescence was read with Nano-BRET substrates. Remove plates from incubator to allow to reach to RT (30 min). Also equilibrate CTG reagent to Rm Temp. Dilute Nano-BRET substrate 1:100 in Assay media. Add 25 uL of diluted substrate to each well and shake for 30 seconds. Read on ClarioSTAR or GloMAX right away (within 10 min). Donor emission @ 460 nm. Acceptor emission @ 618 nm. Use the same plate to measure cell viability (Cell Titer-Glo-2.0 (CTG) Viability test). After reading BRET signal, add CTG reagent to each well at 1:2 ratio and shake on orbital shaker for 2 min. Incubate at Rm Temp for 10-30 min. Read luminescence on ClarioSTAR or GloMAX. Analysis was performed using Prism. Non-linear regression. Log (inhibitor) vs response—variable slope (four parameters). For CTG data linear values (not logarithmic).

[5] = in vitro; format: cell-based; details: human, HEK293 cells, CTG (CellTiter Glo) Relative to Media
Experimental: as §1

[6] = system: COLO320DM cells; format: cell-based; details: read-out: COLO320DM Proliferation Abs IC50
Outline: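 COLO320DM cells at 250 cells/well in RPMI-1640 + 4% HI FBS, dosed after 18–22 h with a 7-point […] 1/2 dilution series from 20 uM down to 313 nM.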

[7] = biological target: T2, full-length beta-Catenin (Uniprot ID P35222) (Homo sapiens, UniProt P35222); assay: Fluorescence polarization IC50 (beta-catenin / 5FAM-TCF4 10-53 competition); format: binding
T2 construct: 10 nM full-length beta-Catenin (Uniprot ID P35222)
T2 sequence (P35222 1-781): T1 sequence (P35222 1-781)

[8] = system: TCF/LEF luciferase Reporter in DLD1 cells; assay: TCF reporter assay (DLD1 TCF/LEF luciferase reporter, Bright-Glo); format: cell-based
Outline: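 DLD1 cells stably carrying a TCF/LEF luciferase reporter were plated at 5000 cells/well in RPMI + 4% FBS and treated overnight with a 1:2 compound dilution series. Bright-Glo luminescence read on day 3; viability by CellTiter-Glo. Absolute IC50 determined.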

[9] = plate row B = 20 uM, integration 0.3 s, reading 1
[10] = fluorescence polarization, beta-catenin, read-out: FP EC50
[11] = read-out: DLD1 4% Abs IC50, DLD1 4%
[12] = absolute IC50, read-out: NanoBRET Abs IC50
[13] = fluorescence polarization, read-out: beta-Catenin FP IC50

chromatographic logD [1]: 2.32
BRET % Inhibition ([2]; 0.625 uM): −56.5% and −6.9% and 8.3%
BRET % Inhibition ([2]; 1.25 uM): −24.8% and −1.1% and −4.0%
BRET % Inhibition ([2]; 2.5 uM): −21.3% and 26.5% and −11.7%
BRET % Inhibition ([2]; 5 uM): −16.9% and −28.4% and −18.6%
BRET % Inhibition ([2]; 10 uM): −21.7% and −21.9% and 1.7%
BRET % Inhibition ([2]; 20 uM): −36.7% and −0.3% and −19.5%
inhibition at 10 µM ([2]; HEK293, @ 10 uM, read-out: NanoBRET % inh @ 10 uM): 4.3%
BRET Acceptor 600 LP raw reading [2, 9]: 860 and 660 and 640
BRET Donor 450 BP raw reading [2, 9]: 58480 and 55870 and 47990
BRET Acceptor 600 LP raw reading ([2]; plate row D = 5 uM): 510 and 420 and 630
BRET Donor 450 BP raw reading ([2]; plate row D = 5 uM): 38850 and 29900 and 47500
BRET Donor 450 BP raw reading ([2]; plate row E = 2.5 uM): 34130 and 22720 and 40100
BRET Acceptor 600 LP raw reading ([2]; plate row G = 0.625 uM): 410 and 440 and 530
BRET Donor 450 BP raw reading ([2]; plate row G = 0.625 uM): 25180 and 35670 and 47630
IC50 ([2]; read-out: NanoBRET IC50): > 20 µM
solubility at 15 min ([3]; Solubility (uM)): 45 µM (≈ 86.3 µg/mL)
CTG (CellTiter Glo) Relative to Media [4]: 101
SMILES: CC(=O)N1CCC[C@]12CC=CCCCC1(CCCC=CCCCOC(=O)N3CC[C@@](C(=O)N[C@@H](Cc4ccsc4)C(=O)N[C@@H](Cc4csc5ccccc45)C(=O)N[C@@H](CCC(N)=O)C(N)=O)(C3)NC(=O)[C@H](CC(N)=O)NC(=O)[C@H](CC(=O)O)NC(=O)[C@H](C)NC(=O)[C@H](C)NC(=O)[C@H](CC(=O)O)NC(=O)[C@H](CC(=O)O)NC1=O)NC(=O)[C@H](CC(C)(C)C)NC(=O)[C@H](Cc1ccccc1)NC2=O (stereo partly drawn) [I-797, Ac-PL3-Phe-Npg-B5-Asp-Asp-Ala-Ala-Asp-Asn-PyrS2-3Thi-BztA-Gln-NH2]
viability at 0.625 µM [5]: 104%
viability at 1.25 µM [5]: 104%
viability at 2.5 µM [5]: 103%
viability at 5 µM [5]: 102%
viability at 10 µM [5]: 100%
viability at 20 µM [5]: 92%

SMILES: CC(=O)N1CCC[C@]12CC=CCCCC1(CCCC=CCCCOC(=O)N3CC[C@@](C(=O)N[C@@H](Cc4ccsc4)C(=O)N[C@@H](Cc4csc5ccccc45)C(=O)N[C@@H](CCC(N)=O)C(N)=O)(C3)NC(=O)[C@H](CC(C)C)NC(=O)[C@H](Cc3ccccc3)NC(=O)[C@H](C)NC(=O)[C@H](C)NC(=O)[C@H](CC(=O)O)NC(=O)[C@H](CC(=O)O)NC1=O)NC(=O)[C@H](CC(C)(C)C)NC(=O)[C@H](CC(=O)O)NC2=O (stereo partly drawn) [I-801, Ac-PL3-Asp-Npg-B5-Asp-Asp-Ala-Ala-Phe-Leu-PyrS2-3Thi-BztA-Gln-NH2]
chromatographic logD [1]: 2.21
IC50 ([2]; read-out: NanoBRET Abs IC50): 5.8 µM
IC50 ([2]; read-out: NanoBRET IC50): 6.8 µM
Solubility [3]: 50 µM (≈ 95.9 µg/mL)
IC50 [6]: > 20 µM
IC50 [7, 10]: 0.006 µM
IC50 ([7]; read-out: beta-Catenin FP IC50): 0.007 µM
IC50 [8, 11]: 4.3 µM

SMILES: CC(=O)N1CCC[C@]12CC=CCCCC1(CCCC=CCCCOC(=O)N3CC[C@@](C(=O)N[C@@H](Cc4ccccc4Cl)C(=O)N[C@@H](Cc4csc5ccccc45)C(=O)N[C@@H](CCO)C(N)=O)(C3)NC(=O)[C@H](CCO)NC(=O)[C@H](Cc3ccccc3)NC(=O)[C@H](C)NC(=O)[C@H](C)NC(=O)[C@H](CN(CC(=O)O)CC(F)(F)F)NC(=O)[C@H](CC(=O)O)NC1=O)NC(=O)[C@H](CC(C)(C)C)NC(=O)[C@H](CC(=O)O)NC2=O (stereo partly drawn) [I-993, Ac-PL3-Asp-Npg-B5-Asp-TfeGA-Ala-Ala-Phe-Hse-PyrS2-2C1F-BztA-Hse-NH2]
chromatographic logD [1]: 2.33
IC50 ([2]; Peptide + ST-Protein (SAINT-Protein lipid), read-out: Nano-BRET Abs IC50): 0.9 µM
IC50 ([2]; Peptide only, read-out: Nano-BRET Abs IC50): 7 µM
IC50 [2, 12]: 4 µM
IC50 ([2]; read-out: NanoBRET Abs IC50): 4.9 µM
Solubility ([3]; Solubility (uM)): 41 µM (≈ 82.7 µg/mL)
IC50 [6]: 3.6 µM
IC50 [7, 10]: 0.012 µM
IC50 ([7]; read-out: beta-Catenin FP IC50): 0.018 µM
IC50 ([8]; Peptide + ST-Protein (SAINT-Protein lipid), read-out: TCF Reporter Assay Abs IC50): 0.2 µM
IC50 ([8]; Peptide only, read-out: TCF Reporter Assay Abs IC50): 5 µM
IC50 ([8]; absolute IC50, read-out: DLD1 reporter assay Abs IC50): 4.4 µM
IC50 [8, 11]: 1.8 µM

SMILES: CC[C@@H]1NC(=O)[C@H](Cc2ccccc2)NC(=O)[C@H](C)NC(=O)C(C)(C)NC(=O)[C@H](Cc2cccc(C(=O)O)c2)NC(=O)[C@H](CC(=O)O)NC(=O)C2(CCCC=CCCCOC(=O)N3CC[C@@](C(=O)N[C@@H](Cc4ccsc4)C(=O)N[C@@H](Cc4csc5ccccc45)C(=O)N[C@@H](CCC(=O)N(C)C)C(=O)N[C@@H](C)C(N)=O)(C3)NC1=O)CCCC=CC[C@]1(CCCN1C(C)=O)C(=O)N[C@@H](CC(=O)O)C(=O)N[C@@H](CC(C)(C)C)C(=O)N2 (stereo partly drawn) [I-2469, Ac-PL3-Asp-Npg-B5-Asp-3COOHF-Aib-Ala-Phe-Abu-PyrS2-3Thi-BztA-Me2Gln-Ala-NH2]
IC50 [2, 12]: 2.3 µM
IC50 ([6]; COLO320DM cells, absolute IC50): 5.6 µM
IC50 [7, 13]: 0.007 µM
IC50 ([8]; read-out: DLD1 4% Abs IC50, DLD1 reporter, 4%, absolute IC50): 0.6 µM

SMILES: CC(=O)NCCCC[C@@H]1NC(=O)[C@H](Cc2ccccc2)NC(=O)[C@H](C)NC(=O)C(C)(C)NC(=O)[C@H](Cc2cccc(C(=O)O)c2)NC(=O)[C@H](CC(=O)O)NC(=O)C2(CCCC=CCCCOC(=O)N3CC[C@@](C(=O)N[C@@H](Cc4ccsc4)C(=O)N[C@@H](Cc4csc5ccccc45)C(=O)N[C@@H](C)C(=O)N[C@@H](C)C(N)=O)(C3)NC1=O)CCCC=CC[C@]1(CCCN1C(C)=O)C(=O)N[C@@H](CC(=O)O)C(=O)N[C@@H](CC(C)(C)C)C(=O)N2 (stereo partly drawn) [I-2578, Ac-PL3-Asp-Npg-B5-Asp-3COOHF-Aib-Ala-Phe-AcLys-PyrS2-3Thi-BztA-Ala-Ala-NH2]
IC50 ([2]; read-out: NanoBRET Abs IC50): 5.5 µM
IC50 ([6]; COLO320DM cells): 7.7 µM
IC50 [7, 13]: 0.005 µM
IC50 ([8]; read-out: DLD1 4% Abs IC50, DLD1 reporter, 4%): 4.1 µM
